Measured values as given in ChEMBL document CHEMBL1909612, “AHL-dependent quorum sensing inhibition: synthesis and biological evaluation of α-(N-alkyl-carboxamide)-γ-butyrolactones and α-(N-alkyl-sulfonamide)-γ-butyrolactones” (Bioorg Med Chem Lett, 2011).
Blank lines part the entries; values can stand above or below the molecule they belong to. Calls of active or inactive are those of the source. The rule behind the calls is not given here.

Legend:
[1] = molecular target: T1, Transcriptional activator protein LuxR (Aliivibrio fischeri) (UniProt P12746); assay: Agonist activity at Vibrio fischeri LuxR expressed in Escherichia coli NM522 containing Photorhabdus luminescens LuxCDABE assessed as induction of quorum sensing activation mediated bioluminescence at 0.1 to 200 uM after 4 to 5 hrs by bioluminescence assay; format: functional
T1 sequence (whole entry): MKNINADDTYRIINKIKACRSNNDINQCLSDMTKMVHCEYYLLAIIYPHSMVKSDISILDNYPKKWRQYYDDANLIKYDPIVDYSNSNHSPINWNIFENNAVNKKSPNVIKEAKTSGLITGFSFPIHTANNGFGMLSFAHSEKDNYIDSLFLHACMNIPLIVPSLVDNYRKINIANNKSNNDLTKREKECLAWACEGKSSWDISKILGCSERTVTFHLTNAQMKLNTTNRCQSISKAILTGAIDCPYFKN

[2] = molecular target: T2, Transcriptional activator protein LuxR (Aliivibrio fischeri, UniProt P12746); assay: Antagonist activity at Vibrio fischeri LuxR expressed in Escherichia coli NM522 containing Photorhabdus luminescens LuxCDABE assessed as inhibition of 3-oxo-C6-HSL-induced quorum sensing activation mediated bioluminescence after 4 to 5 hrs by bioluminescence assay; format: functional
T2 sequence (P12746 whole entry): T1 sequence (whole entry)

Structure (SMILES): CCCCNC(=O)C1CCOC1=O (stereo not drawn)
Activity [1]: inactive | IC50 [2]: 96 µM

Structure (SMILES): CCCCCNC(=O)C1CCOC1=O (stereo not drawn)
Activity [1]: inactive | IC50 [2]: 34 µM

Structure (SMILES): CCCCNS(=O)(=O)C1CCOC1=O (stereo not drawn)
Activity [1]: inactive | IC50 [2]: > 200 µM

Structure (SMILES): CCCCCCN(C)C(=O)C1CCOC1=O (stereo not drawn)
Activity [1]: inactive

Structure (SMILES): CCCCCCCCCCNC(=O)C1CCOC1=O (stereo not drawn)
Activity [1]: inactive | IC50 [2]: 75 µM

Structure (SMILES): CCCCN(C)C(=O)C1CCOC1=O (stereo not drawn)
Activity [1]: inactive

Structure (SMILES): CCCCCNS(=O)(=O)C1CCOC1=O (stereo not drawn)
Activity [1]: inactive | IC50 [2]: 70 µM

Now from value to molecule:

Activity [1]: inactive
Structure (SMILES): CCCCCNC(=O)C1CCCC1O (mixture of isomers) [listing 1 of 2 here]

IC50 [2]: 200 µM
Structure (SMILES): CCCCCNC(=O)C1CCCC1O (mixture of isomers) [listing 2 of 2 here]

Activity [1]: inactive | IC50 [2]: 40 µM
Structure (SMILES): CCCCCNC(=O)C1CCCC1=O (stereo not drawn)

Activity [1]: inactive | IC50 [2]: 52 µM
Structure (SMILES): CCCCCCCCNC(=O)C1CCOC1=O (stereo not drawn)

IC50 [2]: 92 µM
Structure (SMILES): CCCCCNC(=O)C1CCCC1O (stereo not drawn)

Activity [1]: inactive | IC50 [2]: 77 µM
Structure (SMILES): CCCCCCCCNC(=O)C1CCCC1=O (stereo not drawn)

Activity [1]: inactive | IC50 [2]: 54 µM
Structure (SMILES): CCCCCCNC(=O)C1CCOC1=O (stereo not drawn)
